# Tests used:
# [1] = tested on: A549 lung cancer cells; assay: MTT cell viability assay, A549; format: cell-based, human; details: Homo sapiens, A549, 48 h, mean of three independent experiments (N = 9)
# Method: (§1) To evaluate the effect of the examined series on the viability of different lung cancer cells, MTT assay was conducted after exposing A549, H1299, and H661 cell lines to increasing concentrations of each compound for 48 h. […] Table 2 and Supplementary Figure S92 (see Supplementary Materials) show the 50% inhibitory concentration (IC50) values for the compounds under investigation in A549, H1299, and H661 lung cancer cells.
# (§2) The human lung cancer cell lines A549, H1299 and H661 and the normal cells dermal fibroblasts were obtained from the American Type Culture Collection ATCC. Cells were cultured as a monolayer at seeding density of 8 × 10^3 cells per well in high glucose Dulbecco’s modified eagle medium (DMEM) (Invitrogen, USA), as previously described. The in vitro assessment of the antitumorigenic activities related to the studied compounds was undertaken using the 3-(4,5-dimethylthiazol-2yl)-2,5-diphenyl tetrazolium bromide (MTT) colorimetric assay, as previously reported. The compounds under investigation were tested in three triplicates of each concentration in three independent assays for a total of nine replicates. Both positive (cisplatin) and negative (untreated culture) controls were applied under the same experimental conditions. Cells were cultured for 48 h at 37 °C in a 5% CO2 incubator. Afterwards, MTT assay was carried out where viable cell count was determined based on the amount of formazan crystals, as verified by the absorbance at 490 nm.
# (§3) Data was analyzed by Graphpad Prism software (Graphpad Software Inc. Jolla, CA, USA) for the determination of IC50 value. All data were expressed as the average of triplicate experiments.
# [2] = tested on: A549 cells; assay: Colony formation in soft agar assay; format: cell-based, human; set-up: Average Colony Size: unit not given here; details: day 12
# Method: To investigate the effect of treatment with either potent compound 22 or 23 at two different concentrations (5 and 10 µM) on the colony-forming capability of lung cancer cells, A549 cells were treated with either concentration for 24 h. Afterwards, cells were grown on soft agar.
# To carry out the soft agar assay, a bottom agar film of 1% (w/v) was prepared by mixing autoclaved 1% (w/v) agar solution with 2× DMEM medium in a 1:1 ratio and allowed to solidify at room temperature. A mixture of 1 × 10^4 of A549 cells treated with either compound NV7 (5 µM and 10 µM) or NV8 (5 µM and 10 µM) and 0.6% (w/v) agar solution was prepared in 1:1 ratio and poured on top of the bottom layer and left to solidify. Plate was incubated for 2 weeks. Photos were captured after 12 days using EVOS XL Core imaging system (Invitrogen, Waltham, MA, USA).
# [3] = tested on: H661 lung cancer cells; assay: MTT cell viability assay, H661; format: cell-based, human; details: mean of three independent experiments (N = 9)
# Method: as §1, §2, §3
# [4] = tested on: A549 cells; assay: Wound healing (migration) assay; format: cell-based; details: Homo sapiens, A549, 24 h, A549, 10 µM, read-out: % inhibition of wound closure
# Method: The wound healing assay was performed in A549 cells to evaluate the effect of the synthesized series on lung cancer cell migration, as shown in Table 3. The wound of the control sample was completely closed after 24 h. […] Cell migration was inhibited after 24 h of treatment with compounds 22 or 23 compared to untreated control cells.
# A549 cells were seeded in inserts (Ibidi GmbH, Gräfelfing, Germany) at concentration of 30,000 per insert in 70 μL medium and incubated for 24 h. Afterward, inserts were removed and cells incubated with 10 μg/mL of mitomycin C for 2 h to stop cell proliferation. The medium was removed, and cells were washed three times then cells were treated with 10 µM concentration of the examined compound. Images were captured at 24 h using BOECO microscope coupled with 5.0 Mega Cmos camera at 4× magnification. Digital images were taken using ISCapture software and wound width was measured using MIPAR software (MIPAR, Worthington, OH, USA).
# [5] = tested on: human dermal fibroblasts; assay: MTT cell viability assay, normal dermal fibroblasts; format: cell-based; details: Homo sapiens, Fibroblast, 48 h, noncancerous human dermal fibroblasts
# Method: as §1, §2, §3
# [6] = tested on: H1299 lung cancer cells; assay: MTT cell viability assay, H1299; format: cell-based, human; details: Homo sapiens, NCI-H1299, 48 h, mean of three independent experiments (N = 9)
# Method: as §1, §2, §3
Structure (SMILES),IC50 [1],Average Colony Count ([2]; 5 µM),Average Colony Size ([2]; 5 µM),Average Colony Count ([2]; 10 µM),Average Colony Size ([2]; 10 µM),"IC50 ([3]; Homo sapiens, NCI-H661, 48 h)",inhibition at 10 µM [4],IC50 [5],IC50 [6],IC50 ([3]; 48 h)
"CCCCCCCCCC[n+]1ccc(C(=O)N/N=C/c2ccc[n+](CCCCCCCCCC)c2)cc1 [Compound 22, 1-Decyl-3-((2-(1-decylpyridin-1-ium-4-carbonyl)hydrazono)methyl)pyridin-1-ium Hexafluorophosphate]",23.5 µM,210,16356,98,11159,25.6 µM,67.6%,> 300 µM,29.1 µM,–
"CCCCCCCCCC[n+]1ccc(C(=O)NN=Cc2ccc[n+](CCCCCCCCCC)c2)cc1.F[B-](F)(F)F.F[B-](F)(F)F [Compound 23, 1-Decyl-3-((2-(1-decylpyridin-1-ium-4-carbonyl)hydrazono)methyl)pyridin-1-ium Tetrafluoroborate]",13.5 µM,135,43771,45,16837,–,67.1%,> 300 µM,10.8 µM,11.3 µM
